From paper PMC4760952, “Structural basis of interprotein electron transfer in bacterial sulfite oxidation” (eLife, 2015)

Target: T1, SorT (Sinorhizobium meliloti, UniProt Q92M24)
T1 construct: gene SMc04049; recombinant periplasmic SorT, purified as in Low et al. 2011; homodimer; 33 N-terminal residues not seen in the complex crystal
T1 sequence (Q92M24 32-399): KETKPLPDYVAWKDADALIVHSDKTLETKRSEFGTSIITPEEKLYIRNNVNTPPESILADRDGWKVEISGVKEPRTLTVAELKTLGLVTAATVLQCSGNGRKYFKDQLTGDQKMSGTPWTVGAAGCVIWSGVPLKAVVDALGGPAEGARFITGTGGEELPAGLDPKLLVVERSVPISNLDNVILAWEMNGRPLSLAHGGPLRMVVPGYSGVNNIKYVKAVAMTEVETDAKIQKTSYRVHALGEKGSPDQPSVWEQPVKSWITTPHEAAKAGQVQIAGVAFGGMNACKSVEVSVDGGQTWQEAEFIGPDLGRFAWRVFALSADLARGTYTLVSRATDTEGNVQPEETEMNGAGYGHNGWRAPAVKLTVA
Test: sulfite dehydrogenase assay, SorU reduction at […] nm
Type: biochemical
Conditions: electron acceptor SorU

For `O=S(O)O` [sulfite], the “sulfite dehydrogenase assay, SorU reduction at 550 nm” value was “Sulfite dehydrogenase enzyme assays were carried out as described previously”.
